For the assay, the system named is NAD^+-independent myo-inositol 2-dehydrogenase. As to the kind of experiment: NAD^+-independent myo-inositol 2-dehydrogenase activity (oxidized DCIP, absorbance at 600 nm): substrate specificity, Km, heavy metal inhibition. Particulars: for Km: enzyme derived from Acetobacter sp. AB10253, sugar concentration varied; for reaction of the enzyme with the sugar: sugar at a final concentration of 50 mM.

Experimental: The enzyme activity of each fraction was measured by a standard method: that is, the change in absorbance at 600 nm of 1 ml of a solution containing 50 μl of the protein solution, 100 mM phosphate buffer (pH 5.0), 5 mg of myo-inositol, and 0.4 mg of 2,4-dichloroindophenol (oxidized DCIP) was calculated into a reaction rate, and an activity to oxidize 1 μmol of myo-inositol per minute was defined as one unit.
For measurement of the optimum pH, the enzyme activity was measured while changing a buffer and pH value. As the buffer, there were used 100 mM phosphate buffer (pH 3 to 8), 100 mM Tris buffer (pH 7 to 8), and 100 mM carbonate buffer (pH 8 to 11).
The substrate specificity of the target enzyme was determined by measuring the enzyme activity in a solution containing various sugars instead of myo-inositol at a final concentration of 50 mM.

Usually Km stands for the substrate concentration at which the rate is half of its maximum. For `OC1C(O)C(O)C(O)C(O)C1O` [D-chiro-inositol], the Km came to 8.8 mM.
As to `[Sn+2]` [Sn^2+ ion, reference compound], the “enzyme activity relative to the activity in the absence of the ion” value (1 mM ion, 100 mM phosphate buffer (pH 5.0)) is at most 1%.
Regarding `OC1C(O)C(O)C(O)C(O)C1O` (stereo not drawn) [allo-inositol], the “reaction of the enzyme with the sugar” value is given as “not to react”.
Consider `OC1C(O)C(O)C(O)C(O)C1O` (stereo not drawn) [muco-inositol], for which the Km was found to be 14.5 mM.
Same read-out and setting: with `OC1C(O)[C@H](O)[C@H](O)C(O)[C@@H]1O` (stereo partly drawn) [myo-inositol] the figure was 20 mM.
Take `OC1C(O)[C@H](O)[C@H](O)C(O)[C@H]1O` (stereo partly drawn) [scyllo-inositol]: the “reaction of the enzyme with the sugar” value is “not to react”.
